For 8 compounds, IC50 results are on record in PMC11558128 (Advanced Science, 2024).

One experiment concerns the target T1, rKv4.2 (Rattus norvegicus, UniProt Q63881).
T1 construct: expressed in transfected cells; host or cells: HEK293T
T1 sequence (Q63881 1-630): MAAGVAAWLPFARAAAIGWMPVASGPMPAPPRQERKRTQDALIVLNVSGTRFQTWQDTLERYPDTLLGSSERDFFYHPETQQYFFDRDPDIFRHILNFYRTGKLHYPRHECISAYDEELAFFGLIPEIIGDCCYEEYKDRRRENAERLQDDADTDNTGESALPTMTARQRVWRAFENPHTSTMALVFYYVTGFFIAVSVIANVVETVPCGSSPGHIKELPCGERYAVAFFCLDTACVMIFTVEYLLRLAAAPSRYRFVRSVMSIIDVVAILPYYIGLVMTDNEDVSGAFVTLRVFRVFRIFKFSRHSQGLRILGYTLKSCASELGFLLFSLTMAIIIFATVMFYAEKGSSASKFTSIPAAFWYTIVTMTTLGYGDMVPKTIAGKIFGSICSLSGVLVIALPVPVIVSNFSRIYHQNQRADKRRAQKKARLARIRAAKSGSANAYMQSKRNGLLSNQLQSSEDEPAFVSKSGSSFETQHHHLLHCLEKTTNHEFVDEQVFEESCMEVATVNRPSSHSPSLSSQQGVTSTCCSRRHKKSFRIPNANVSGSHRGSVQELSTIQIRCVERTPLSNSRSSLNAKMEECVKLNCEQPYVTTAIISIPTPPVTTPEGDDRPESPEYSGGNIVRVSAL
Description: cell-based. Conditions: whole-cell patch clamp, HEK293T, n = 3-8, SEM.

Another experiment has as its target T2, hNav1.7 (Homo sapiens, UniProt Q15858).
T2 construct: expressed in transfected cells; host or cells: HEK293T
Kind of experiment: cell-based. Conditions: whole-cell patch clamp, HEK293T.

The mark [1] stands for this setting: mean ± SEM, read-out: IC50 on rKv4.2 WT.

Like-named read-outs stand apart in the source and are kept apart here. Positions of bridges follow the written chain, without caps; N, C: chain ends. Residues, ends and D or L forms follow the SMILES beside them.

T2 sequence (O60939 30-215): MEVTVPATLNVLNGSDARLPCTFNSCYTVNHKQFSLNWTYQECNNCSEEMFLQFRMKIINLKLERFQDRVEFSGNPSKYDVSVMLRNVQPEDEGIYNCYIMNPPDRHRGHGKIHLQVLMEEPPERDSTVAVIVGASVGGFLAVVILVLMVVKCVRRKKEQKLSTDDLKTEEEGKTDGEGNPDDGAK
T2 sequence (Q15858 other isoform, or with tags, fused parts or gaps): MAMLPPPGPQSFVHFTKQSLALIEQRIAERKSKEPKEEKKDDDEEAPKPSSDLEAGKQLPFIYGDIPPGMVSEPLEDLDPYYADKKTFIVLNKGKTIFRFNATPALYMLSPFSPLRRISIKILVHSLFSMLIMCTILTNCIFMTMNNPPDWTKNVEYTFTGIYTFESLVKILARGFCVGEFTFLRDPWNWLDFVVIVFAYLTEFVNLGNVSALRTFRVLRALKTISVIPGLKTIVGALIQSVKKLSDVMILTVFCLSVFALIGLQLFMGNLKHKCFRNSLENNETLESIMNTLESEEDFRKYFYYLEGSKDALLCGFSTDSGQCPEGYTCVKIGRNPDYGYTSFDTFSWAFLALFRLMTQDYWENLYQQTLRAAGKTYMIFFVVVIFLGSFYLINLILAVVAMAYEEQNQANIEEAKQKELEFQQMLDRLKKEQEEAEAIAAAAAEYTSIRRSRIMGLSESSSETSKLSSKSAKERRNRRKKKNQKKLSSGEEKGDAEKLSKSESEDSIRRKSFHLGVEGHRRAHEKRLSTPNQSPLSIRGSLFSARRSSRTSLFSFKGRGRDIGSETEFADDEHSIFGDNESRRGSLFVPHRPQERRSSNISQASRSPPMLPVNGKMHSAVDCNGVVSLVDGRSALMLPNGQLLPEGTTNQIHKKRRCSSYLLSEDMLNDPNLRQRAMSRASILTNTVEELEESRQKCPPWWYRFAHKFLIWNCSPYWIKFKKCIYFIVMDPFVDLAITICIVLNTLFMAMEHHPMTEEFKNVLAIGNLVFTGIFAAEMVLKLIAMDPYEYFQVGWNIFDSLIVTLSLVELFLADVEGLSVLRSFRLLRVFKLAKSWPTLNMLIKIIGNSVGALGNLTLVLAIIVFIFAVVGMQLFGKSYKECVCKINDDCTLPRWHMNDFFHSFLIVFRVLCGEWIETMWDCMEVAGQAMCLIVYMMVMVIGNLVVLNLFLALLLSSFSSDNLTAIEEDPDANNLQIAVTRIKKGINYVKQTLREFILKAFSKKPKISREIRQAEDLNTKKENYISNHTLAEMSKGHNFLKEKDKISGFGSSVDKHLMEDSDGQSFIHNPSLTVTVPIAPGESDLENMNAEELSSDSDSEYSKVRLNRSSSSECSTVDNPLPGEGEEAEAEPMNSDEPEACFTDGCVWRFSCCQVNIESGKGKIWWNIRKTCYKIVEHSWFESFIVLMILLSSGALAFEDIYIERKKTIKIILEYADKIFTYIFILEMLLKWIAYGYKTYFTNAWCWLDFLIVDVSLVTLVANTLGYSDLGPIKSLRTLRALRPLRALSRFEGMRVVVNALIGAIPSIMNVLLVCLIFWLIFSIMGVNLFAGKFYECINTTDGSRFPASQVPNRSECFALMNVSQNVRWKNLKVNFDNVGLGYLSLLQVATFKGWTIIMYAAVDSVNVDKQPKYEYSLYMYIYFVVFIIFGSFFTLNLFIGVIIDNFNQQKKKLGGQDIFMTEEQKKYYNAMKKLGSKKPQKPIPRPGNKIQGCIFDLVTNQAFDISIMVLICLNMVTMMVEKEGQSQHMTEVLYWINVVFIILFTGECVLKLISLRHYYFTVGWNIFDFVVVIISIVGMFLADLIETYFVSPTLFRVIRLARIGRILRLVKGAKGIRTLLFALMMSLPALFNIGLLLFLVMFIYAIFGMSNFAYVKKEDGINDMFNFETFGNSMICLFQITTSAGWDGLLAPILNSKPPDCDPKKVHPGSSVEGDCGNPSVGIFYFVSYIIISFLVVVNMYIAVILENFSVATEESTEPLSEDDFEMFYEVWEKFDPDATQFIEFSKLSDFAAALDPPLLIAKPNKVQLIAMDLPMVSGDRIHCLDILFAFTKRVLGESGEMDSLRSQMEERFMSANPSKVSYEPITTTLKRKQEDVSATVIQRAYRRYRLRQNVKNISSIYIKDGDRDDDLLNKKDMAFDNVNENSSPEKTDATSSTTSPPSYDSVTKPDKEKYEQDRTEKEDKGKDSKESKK
T2 sequence (Q07699 19-218, further chain): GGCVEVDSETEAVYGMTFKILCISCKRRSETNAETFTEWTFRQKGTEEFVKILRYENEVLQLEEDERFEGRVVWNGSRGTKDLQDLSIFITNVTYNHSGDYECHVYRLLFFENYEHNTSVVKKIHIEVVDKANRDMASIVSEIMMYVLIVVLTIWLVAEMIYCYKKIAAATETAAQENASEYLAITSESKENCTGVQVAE

`CC[C@H](C)[C@@H]1NC(=O)[C@@H]2CSSC[C@@H]3NC(=O)[C@H](C(C)C)NC(=O)[C@H](CC(C)C)NC(=O)[C@H](CC(N)=O)NC(=O)[C@@H]4CCCN4C(=O)[C@H](CCCNC(=N)N)NC(=O)[C@H](CSSC[C@H](NC(=O)[C@@H](N)CC(=O)O)C(=O)N[C@@H](CC(C)C)C(=O)NCC(=O)N[C@@H](C)C(=O)N[C@@H](Cc4ccccc4)C(=O)N[C@@H](CCCNC(=N)N)C(=O)N[C@@H](CCCCN)C(=O)N2)NC(=O)[C@H](CSSC[C@@H](C(=O)N[C@@H](CCCCN)C(=O)N[C@@H](Cc2ccc(O)cc2)C(=O)N[C@H](C(=O)N[C@@H](Cc2ccccc2)C(N)=O)C(C)C)NC(=O)[C@H](Cc2c[nH]c4ccccc24)NC(=O)[C@H](CCCNC(=N)N)NC(=O)[C@H](Cc2c[nH]cn2)NC(=O)[C@H](CC(C)C)NC(=O)[C@H](C)NC(=O)[C@H](CO)NC3=O)NC(=O)[C@H](CCCCN)NC(=O)[C@H](CC(=O)O)NC(=O)[C@H](CC(N)=O)NC(=O)[C@H](CC(=O)O)NC(=O)[C@@H]2CCCN2C1=O` [mGpTx1-R25A] (H-DCLGAFRKCIPDNDKCCRPNLVCSALHRWCKYVF-NH2; disulfide 2-17, 9-23, 16-30): the half-maximal inhibitory concentration (IC50) at rKv4.2 (held at -80 mV, step to 0 mV, mean ± S.E.M., read-out: IC50 for rKv4.2) is 57.2 ± 6.2 nM; on hNav1.7 (hNav1.7 with β1 and β2, held at -90 mV, step to 0 mV, mean ± S.E.M., n = 3-7, SEM, read-out: IC50 for hNav1.7), 1.3 ± 0.1 nM. In the case of `CC(C)[C@H](NC(=O)[C@H](CCCCN)NC(=O)[C@@H]1CSSC[C@@H]2NC(=O)[C@H](CCC(=O)O)NC(=O)[C@H](CC(N)=O)NC(=O)[C@H](CCCCN)NC(=O)CNC(=O)[C@@H]3CCCN3C(=O)[C@H]([C@@H](C)O)NC(=O)[C@@H]3CSSC[C@H](NC(=O)[C@H](C)NC(=O)[C@H](Cc4ccc(O)cc4)NC(=O)[C@H](CC(N)=O)NC(=O)[C@@H]4CCCN4C(=O)[C@H](CSSC[C@H](NC(=O)CN)C(=O)N[C@@H](CCCCN)C(=O)NCC(=O)N[C@@H](Cc4ccccc4)C(=O)NCC(=O)N[C@@H](CC(=O)O)C(=O)N[C@@H](CO)C(=O)N3)NC2=O)C(=O)N[C@@H](CO)C(=O)N[C@@H](CO)C(=O)N[C@@H](CCCCN)C(=O)N[C@@H](Cc2c[nH]cn2)C(=O)N[C@@H](CCCCN)C(=O)N[C@@H](Cc2c[nH]c3ccccc23)C(=O)N1)C(=O)N[C@@H](Cc1ccc(O)cc1)C(=O)N[C@@H](CCCCN)C(N)=O` [L33K] (H-GCKGFGDSCTPGKNECCPNYACSSKHKWCKVYK-NH2; disulfide 2-17, 9-22, 16-29), the half-inhibitory concentration (IC50) at rKv4.2 (setting [1]) was 20000 ± 4000 nM; on hNav1.7 (mean ± SEM, this study, read-out: IC50 on hNav1.7), > 10000 nM. With `CC(C)C[C@H](NC(=O)[C@H](Cc1ccc(O)cc1)NC(=O)[C@@H](NC(=O)[C@H](CCCCN)NC(=O)[C@@H]1CSSC[C@@H]2NC(=O)[C@H](CCC(=O)O)NC(=O)[C@H](CC(N)=O)NC(=O)[C@H](CCCCN)NC(=O)CNC(=O)[C@@H]3CCCN3C(=O)[C@H]([C@@H](C)O)NC(=O)[C@@H]3CSSC[C@H](NC(=O)[C@H](C)NC(=O)[C@H](C)NC(=O)[C@H](CC(N)=O)NC(=O)[C@@H]4CCCN4C(=O)[C@H](CSSC[C@H](NC(=O)CN)C(=O)N[C@@H](CCCCN)C(=O)NCC(=O)N[C@@H](Cc4ccccc4)C(=O)NCC(=O)N[C@@H](CC(=O)O)C(=O)N[C@@H](CO)C(=O)N3)NC2=O)C(=O)N[C@@H](CO)C(=O)N[C@@H](CO)C(=O)N[C@@H](CCCCN)C(=O)N[C@@H](Cc2c[nH]cn2)C(=O)N[C@@H](CCCCN)C(=O)N[C@@H](Cc2c[nH]c3ccccc23)C(=O)N1)C(C)C)C(N)=O` [Y20A] (H-GCKGFGDSCTPGKNECCPNAACSSKHKWCKVYL-NH2; disulfide 2-17, 9-22, 16-29), the IC50 stood at 4000 ± 2000 nM at rKv4.2 (setting [1]) and 7160 ± 528 nM at hNav1.7 (mean ± SEM, this study, SEM, read-out: IC50 on hNav1.7). On to `CC(C)C[C@H](NC(=O)[C@H](Cc1ccc(O)cc1)NC(=O)[C@@H](NC(=O)[C@H](CCCCN)NC(=O)[C@@H]1CSSC[C@@H]2NC(=O)[C@H](CCC(=O)O)NC(=O)[C@H](CC(N)=O)NC(=O)[C@H](CCCCN)NC(=O)CNC(=O)[C@@H]3CCCN3C(=O)[C@H]([C@@H](C)O)NC(=O)[C@@H]3CSSC[C@H](NC(=O)[C@H](C)NC(=O)[C@H](Cc4ccc(O)cc4)NC(=O)[C@H](CC(C)C)NC(=O)[C@@H]4CCCN4C(=O)[C@H](CSSC[C@H](NC(=O)CN)C(=O)N[C@@H](CCCCN)C(=O)NCC(=O)N[C@@H](Cc4ccccc4)C(=O)NCC(=O)N[C@@H](CC(=O)O)C(=O)N[C@@H](CO)C(=O)N3)NC2=O)C(=O)N[C@@H](CO)C(=O)N[C@@H](CO)C(=O)N[C@@H](CCCCN)C(=O)N[C@@H](Cc2c[nH]cn2)C(=O)N[C@@H](CCCCN)C(=O)N[C@@H](Cc2c[nH]c3ccccc23)C(=O)N1)C(C)C)C(N)=O` [N19L] (H-GCKGFGDSCTPGKNECCPLYACSSKHKWCKVYL-NH2; disulfide 2-17, 9-22, 16-29), for which the IC50 at rKv4.2 (setting [1]) turned out to be 42 ± 4 nM.

For the compound `CC(C)C[C@H](NC(=O)[C@H](Cc1ccc(O)cc1)NC(=O)[C@@H](NC(=O)[C@H](CCCCN)NC(=O)[C@@H]1CSSC[C@@H]2NC(=O)[C@H](CCC(=O)O)NC(=O)[C@H](CC(N)=O)NC(=O)[C@H](CCCCN)NC(=O)CNC(=O)[C@@H]3CCCN3C(=O)[C@H]([C@@H](C)O)NC(=O)[C@@H]3CSSC[C@H](NC(=O)[C@H](C)NC(=O)[C@H](Cc4ccc(O)cc4)NC(=O)[C@H](CCCCN)NC(=O)[C@@H]4CCCN4C(=O)[C@H](CSSC[C@H](NC(=O)CN)C(=O)N[C@@H](CCCCN)C(=O)NCC(=O)N[C@@H](Cc4ccccc4)C(=O)NCC(=O)N[C@@H](CC(=O)O)C(=O)N[C@@H](CO)C(=O)N3)NC2=O)C(=O)N[C@@H](CO)C(=O)N[C@@H](CO)C(=O)N[C@@H](CCCCN)C(=O)N[C@@H](Cc2c[nH]cn2)C(=O)N[C@@H](CCCCN)C(=O)N[C@@H](Cc2c[nH]c3ccccc23)C(=O)N1)C(C)C)C(N)=O` [N19K] (H-GCKGFGDSCTPGKNECCPKYACSSKHKWCKVYL-NH2; disulfide 2-17, 9-22, 16-29), the 50% inhibitory concentration (IC50) on rKv4.2 (setting [1]) was 475 ± 103 nM. On to `CC(C)C[C@H](NC(=O)[C@H](Cc1ccc(O)cc1)NC(=O)[C@@H](NC(=O)[C@H](CCCCN)NC(=O)[C@@H]1CSSC[C@@H]2NC(=O)[C@H](CCC(=O)O)NC(=O)[C@H](CC(N)=O)NC(=O)[C@H](CCCCN)NC(=O)CNC(=O)[C@@H]3CCCN3C(=O)[C@H]([C@@H](C)O)NC(=O)[C@@H]3CSSC[C@H](NC(=O)[C@H](C)NC(=O)[C@H](Cc4ccc(O)cc4)NC(=O)[C@H](CC(N)=O)NC(=O)[C@@H]4CCCN4C(=O)[C@H](CSSC[C@H](NC(=O)CN)C(=O)N[C@@H](CCCCN)C(=O)NCC(=O)N[C@@H](CC(C)C)C(=O)NCC(=O)N[C@@H](CC(=O)O)C(=O)N[C@@H](CO)C(=O)N3)NC2=O)C(=O)N[C@@H](CO)C(=O)N[C@@H](CO)C(=O)N[C@@H](CCCCN)C(=O)N[C@@H](Cc2c[nH]cn2)C(=O)N[C@@H](CCCCN)C(=O)N[C@@H](Cc2c[nH]c3ccccc23)C(=O)N1)C(C)C)C(N)=O` [F5L] (H-GCKGLGDSCTPGKNECCPNYACSSKHKWCKVYL-NH2; disulfide 2-17, 9-22, 16-29), for which the IC50 at rKv4.2 (setting [1]) turned out to be 10000 ± 4000 nM. For the compound `CC(C)C[C@H](NC(=O)[C@H](Cc1ccc(O)cc1)NC(=O)[C@@H](NC(=O)[C@H](CCCCN)NC(=O)[C@@H]1CSSC[C@@H]2NC(=O)[C@H](CCC(=O)O)NC(=O)[C@H](CC(N)=O)NC(=O)[C@H](CCCCN)NC(=O)CNC(=O)[C@@H]3CCCN3C(=O)[C@H]([C@@H](C)O)NC(=O)[C@@H]3CSSC[C@H](NC(=O)[C@H](CC(C)C)NC(=O)[C@H](Cc4ccc(O)cc4)NC(=O)[C@H](CC(N)=O)NC(=O)[C@@H]4CCCN4C(=O)[C@H](CSSC[C@H](NC(=O)CN)C(=O)N[C@@H](CCCCN)C(=O)NCC(=O)N[C@@H](Cc4ccccc4)C(=O)NCC(=O)N[C@@H](CC(=O)O)C(=O)N[C@@H](CO)C(=O)N3)NC2=O)C(=O)N[C@@H](CO)C(=O)N[C@@H](CO)C(=O)N[C@@H](CCCCN)C(=O)N[C@@H](Cc2c[nH]cn2)C(=O)N[C@@H](CCCCN)C(=O)N[C@@H](Cc2c[nH]c3ccccc23)C(=O)N1)C(C)C)C(N)=O` [A21L] (H-GCKGFGDSCTPGKNECCPNYLCSSKHKWCKVYL-NH2; disulfide 2-17, 9-22, 16-29), the IC50 on rKv4.2 (setting [1]) came to 60 ± 10 nM. Same read-out and setting: next, `CC(C)C[C@H](NC(=O)[C@H](Cc1ccc(O)cc1)NC(=O)[C@@H](NC(=O)[C@H](CCCCN)NC(=O)[C@@H]1CSSC[C@@H]2NC(=O)[C@H](CCC(=O)O)NC(=O)[C@H](CC(N)=O)NC(=O)[C@H](CCCCN)NC(=O)CNC(=O)[C@@H]3CCCN3C(=O)[C@H]([C@@H](C)O)NC(=O)[C@@H]3CSSC[C@H](NC(=O)[C@H](C)NC(=O)[C@H](Cc4ccc(O)cc4)NC(=O)[C@H](CC(N)=O)NC(=O)[C@H](C)NC(=O)[C@H](CSSC[C@H](NC(=O)CN)C(=O)N[C@@H](CCCCN)C(=O)NCC(=O)N[C@@H](Cc4ccccc4)C(=O)NCC(=O)N[C@@H](CC(=O)O)C(=O)N[C@@H](CO)C(=O)N3)NC2=O)C(=O)N[C@@H](CO)C(=O)N[C@@H](CO)C(=O)N[C@@H](CCCCN)C(=O)N[C@@H](Cc2c[nH]cn2)C(=O)N[C@@H](CCCCN)C(=O)N[C@@H](Cc2c[nH]c3ccccc23)C(=O)N1)C(C)C)C(N)=O` [P18A] (H-GCKGFGDSCTPGKNECCANYACSSKHKWCKVYL-NH2; disulfide 2-17, 9-22, 16-29): 140 ± 43 nM.
